Measurements as given in patent US7507860B2 (Pfizer Inc., priority 2004, dated 2009).

Test system: male C3H/HeN mice
Experiment: Modified telogen conversion assay (animal model for androgenetic alopecia)
Assay type: in vivo, mouse
Conditions: 3 w/v % topical, twice daily for 4 weeks
Excerpt: It has been discovered that male C3H/HeN mice may be used in the telogen conversion assay, when evaluating anti-androgen test compounds. Thus, the model relates to a modification of the existing telogen conversion assay. Male C3H/HeN mice approximately 7 weeks old are utilized. These animals are also uniformly in telogen, like their female counterparts. However, once shaven, the androgens inherently present in these male mice inhibit the conversion of the hair follicles to the anagen phase. An anti-androgen will block this androgenic effect and the follicles will convert to anagen, like their female counterparts.
The compound described in Example 1 was submitted for further testing utilizing the modified telogen conversion assay, described above. The testing was carried out in the following manner.
Male C3H/HeN mice, 6 to 7 weeks old (Charles River Laboratories, Raleigh, N.C.) were used for the study. Fur was clipped from the dorsal region of the mice prior to initiation of the study. Only mice with pink skin, a visual indication of the telogen phase, were selected for inclusion in the study. […]
The treatment area was observed and graded every other day for signs of hair growth. The hair growth response was quantified by recording, for each animal, the day on which signs of hair growth first appeared over the treated area. […]

CCCC(Oc1ccc(C#N)c(C(F)(F)F)c1)C(=O)NCc1ccccc1 (stereo not shown) [Example 4, 2-(4-Cyano-3-trifluoromethyl-phenoxy)-pentanoic acid benzylamide]
Induction of anagen (first signs of hair growth) versus vehicle control: Anagen did not occur in the test group prior to its initiation in the vehicle control group
